Data reported in patent US20160100585A1, “Pesticidal Mixtures” (priority 2012, published 2016).

Tests used:
Type in all cases: in vivo
wheat = test: Improvement of plant height in wheat, pot trials (Use example H-2); settings: wheat cv. JB Asano, pots, 14 days at 20° C; untreated control = 100% (13.9 cm); pyraclostrobin 5 g ai/100 kg seeds as seed treatment, B. pumilus INR7 10 ml broth per seed as drench
Protocol: Pyraclostrobin was applied as commercial seed treatment formulation STAMINA (200 g/L a.i., BASF SE, Ludwigshafen, Germany).
In pot trials in Limburgerhof greenhouses, Bacillus pumilis INR7 was tested in wheat and maize as solo products and in combination with pyraclostrobin to show effects on plant height. The application of the pyraclostrobin was done as seed treatment and the seeds were treated in the BASF Seed Solutions Technology Center (SSTC) Limburgerhof using a batch lab treater. The respective amount of seeds was placed in the bowl of the treater and the slurry was dosed on the spinning disk.
The bacterials were grown in shake flasks and used as fermentation broth with a CFU of at least 1×10^12 per ml. This broth was added as a drench solution directly adjacent to the seeds with 10 ml for each seed kernel which makes 50 ml per pot.
The trial was sown in 8 cm pots and a mix of peat substrate and sand (ratio 1:4) was used as a substrate. […]
For the assessment, the plant height from all plants was measured in cm. […]
The expected relative plant height of active compound combinations were determined using Colby's formula (Colby, S. R. “Calculating synergistic and antagonistic responses of herbicide combinations”, Weeds 15, pp. 20-22, 1967) and compared with the observed efficacies. […]

Sclerotinia sclerotiorum = test: Action against Sclerotinia sclerotiorum in soybean using pot trials (Use example FG-6); settings: soy bean cv. Goriziana, pots, 14 days at 20° C; % of the untreated control (infection level 96%); pyraclostrobin 2.5 g ai/100 kg seeds as seed treatment, B. pumilus INR7 10 ml broth per seed as drench
Protocol: Pyraclostrobin was applied as commercial seed treatment formulation […], Ludwigshafen, Germany). The application of the pyraclostrobin was done as seed treatment and the seeds were treated in the BASF Seed Solutions Technology Center (SSTC) Limburgerhof using a batch lab treater. The respective amount of seeds was placed in the bowl of the treater and the slurry was dosed on the spinning disk. The B. pumilus INR7 were grown in shake flasks and used as fermentation broth with of at least 1×10^12 CFU per ml. This broth was added as a drench solution directly adjacent to the seeds with 10 ml for each seed kernel which makes 50 ml per pot. For the infection, rye kernels inoculated with Sclerotinia sclerotiorum were used. The trial was sown in 8 cm pots and as a substrate a mix of peat substrate and sand in the ratio 1:4 was used. The pots were filled with the substrate and the rye kernels inoculated with Sclerotinia sclerotiorum were placed directly adjacent to the seeds. In each pot 5 soy bean seeds (cv. Goriziana) were sown at a sowing depth of 2 cm, then covered with substrate. For each treatment 5 replications were made. […] For the assessment, the plants were evaluated according to a 2 class evaluation (healthy, diseased). Those figures were converted into efficacies in % of the untreated control and the efficacy (E) was calculated as follows using Abbot's formula.

Gaeumannomyces graminis = test: Action against Gaeumannomyces graminis in wheat using pot trials (Use example FG-7); settings: wheat cv. JB Asano, pots, 14 days at 20° C; % of the untreated control (infection 96%); pyraclostrobin 2.5 g ai/100 kg seeds as seed treatment, B. pumilus INR7 10 ml broth per seed as drench
Protocol: Pyraclostrobin was applied as commercial seed treatment formulation […], Ludwigshafen, Germany). The application of the pyraclostrobin was done as seed treatment and the seeds were treated in the BASF Seed Solutions Technology Center (SSTC) Limburgerhof using a batch lab treater. The respective amount of seeds was placed in the bowl of the treater and the slurry was dosed on the spinning disk. The B. pumilus INR7 were grown in shake flasks and used as fermentation broth with of at least 1×10^12 CFU per ml. This broth was added as a drench solution directly adjacent to the seeds with 10 ml for each seed kernel which makes 50 ml per pot. For the assessment, the plants were evaluated according to a 2 class evaluation (healthy, diseased). Those figures were converted into efficacies in % of the untreated control and the efficacy (E) was calculated as follows using Abbot's formula. Experimental setup was identical to Use example FG-6 unless described below. For the infection, rye kernels inoculated with Gaeumannomyces graminis were used. The trial was sown in 8 cm pots and a mix of peat substrate and sand (ratio 1:4) was used as a substrate. The pots were filled with the substrate and the rye kernels inoculated with Gaeumannomyces graminis were placed directly adjacent to the wheat seeds. […] JB Asano) were sown at a sowing depth of 1.5 cm and then covered with substrate. […]

With Pyraclostrobin the “Observed relative plant height” value (wheat) was 99.4%, the Observed efficacy (Sclerotinia sclerotiorum) was 16.7% and the Observed efficacy (Gaeumannomyces graminis) was 5.0%.
